PMC9823088, “The oral selective estrogen receptor degrader GDC-0810 (ARN-810) in postmenopausal women with hormone receptor-positive HER2-negative (HR + /HER2 −) advanced/metastatic breast cancer” (Breast Cancer Research and Treatment, 2022)

Experiment: Safety: adverse events (NCI-CTCAE v4.0), DLT, MTD, RP2D
Type: in vivo
Procedure: AEs were assessed using the National Cancer Institute-Common Terminology Criteria for Adverse Events (NCI-CTCAE v4.0). […] The protocol-defined GDC-0810-specific AEs of special interest (AESI) which were non-serious adverse events that required expedited reporting to the sponsor, included DLTs occurring during the DLT assessment window, grade ≥ 2 vomiting/diarrhea, grade ≥ 3 nausea, grade ≥ 2 thromboembolic events, grade ≥ 2 vaginal or uterine hemorrhage, and grade ≥ 3 elevation of ALT or AST.
Analyses of safety, pharmacokinetics, anti-tumor activity, and data from the FES-PET imaging correlative studies were planned. Confirmatory inferential analyses and imputation for missing data were not planned due to the exploratory nature of this study. Descriptive statistics were used to summarize patient data. The number of patients to be enrolled was dependent upon the observed safety and pharmacokinetic profile during dose escalations. The safety- and efficacy-evaluable population included patients who received at least one dose of the study drug. Safety was assessed through summaries of DLTs, AEs, changes in select laboratory test results, vital signs, ECGs, and changes in endometrial thickness. Objective response (with confirmation) and clinical benefit rates (CBR) were derived per RECIST v1.1 and summarized by dose level and cohort. […]
polyps, endometrial cancer, endometrial hyperplasia, and other significant disorders); any […]
disease or chronic diarrhea, short bowel syndrome, or upper gastrointestinal surgery; known human immunodeficiency virus (HIV) infection; known clinically significant history of liver disease; major surgery within 4 weeks prior to enrollment; or radiation therapy within 2 weeks […]
There were phase-specific exclusion criteria as well. In phase Ib, cohort C1 excluded patients with a history of venous thromboembolic event requiring therapeutic anticoagulation or vaginal bleeding within 2 months prior to enrollment. In phase IIa, cohorts A1 and A2 excluded patients with >1 chemotherapy in the advanced/metastatic disease setting. In phase IIa, cohort B1 excluded patients with >1 prior AI in the advanced/metastatic disease setting or prior […]
In phase IIa, cohort B2 excluded patients with >1 prior AI or >1 prior chemotherapy in the advanced/metastatic disease setting.
Patients in phase Ia in dose escalation received oral doses of GDC-0810 during 28-day cycles given once daily (QD) or twice-daily (BID), with fasting and without fasting, and with a single dose given on day −7 leading into cycle 1. The starting dose in the first cohort was 100 mg per day based on preclinical studies. Dose escalation to 200 mg and by 200 mg increments in successive cohorts occurred in the absence of dose-limiting toxicities (DLTs), or conditionally in the presence of DLTs. A DLT was defined as any adverse event (AE) occurring during the DLT window deemed by the investigator or sponsor to be related to the study drug unless they were clearly related to disease progression or other cause; DLT incidences were evaluated from day […]
patients in a dose cohort experienced a DLT, 3 additional patients were assigned to that dose; dose escalation to the next level proceeded if DLTs were experienced by ≤1 patient out of 6. If ≥2 patients experienced DLTs at a given dose, a lower dose was to be declared the maximum […]
Phase Ib was a dose-escalation study of GDC-0810 starting at 400 mg QD, as […]
Phase IIa explored the recommended phase 2 dose (RP2D) from phase Ia. All patients received GDC-0810 600 mg under non-fasting conditions. Cohorts A1 and A2 enrolled patients with tumors harboring ESR1 mutations with no prior fulvestrant use in cohort A1 while prior fulvestrant use was allowed in cohort A2. Cohorts B1 and B2 enrolled patients whose disease had progressed and who may have had one or no AI therapy; there was no prior fulvestrant use in cohort B1 while prior fulvestrant use was allowed in cohort B2.
Patients in all three study phases continued treatment until unacceptable toxicity, disease

[1] = phase IIa B2, 600 mg QD, n = 19
[2] = phase Ia cohorts 1–9, 100–800-mg BID, 300–400-mg QD, n = 41
[3] = phase Ib C1, 400 mg QD + palbociclib, n = 4

CC/C(=C(/c1ccc(/C=C/C(=O)O)cc1)c1ccc2[nH]ncc2c1)c1ccc(F)cc1Cl [GDC-0810]
Constipation, Grades 3–5 [1]: 0 n (%)
Constipation, all grades [1]: 4 (21) n (%)
Cough, Grades 3–5 [1]: 0 n (%)
Cough, all grades [1]: 4 (21) n (%)
Decreased appetite, Grades 3–5 [1]: 0 n (%)
Decreased appetite, all grades [1]: 2 (11) n (%)
Diarrhea, Grades 3–5 [1]: 0 n (%)
Diarrhea, all grades [1]: 11 (58) n (%)
Dyspepsia, Grades 3–5 [1]: 0 n (%)
Dyspepsia, all grades [1]: 2 (11) n (%)
Fatigue, Grades 3–5 [1]: 0 n (%)
Fatigue, all grades [1]: 7 (37) n (%)
Flatulence, Grades 3–5 [1]: 0 n (%)
Flatulence, all grades [1]: 0 n (%)
Nausea, Grades 3–5 [1]: 0 n (%)
Nausea, all grades [1]: 9 (47) n (%)
Vomiting, Grades 3–5 [1]: 0 n (%)
Vomiting, all grades [1]: 2 (11) n (%)
AEs leading to dose interruption (phase IIa expansion cohorts): 32 (32%) n (%)
AEs leading to dose reduction (phase IIa expansion cohorts): 4 (4%) n (%)
AEs leading to study drug withdrawal (phase IIa expansion cohorts): 3 (3%) n (%)
MTD (maximum tolerated dose) (phase Ia): not reached
time to onset for any grade diarrhea, range (phase Ia): 1 to 176 days
AST increased, Grades 3–5 [2]: 2 (5) n (%)
AST increased, all grades [2]: 17 (42) n (%)
Abdominal pain, Grades 3–5 [2]: 1 (2) n (%)
Abdominal pain, all grades [2]: 12 (29) n (%)
Anemia, Grades 3–5 [2]: 1 (2) n (%)
Anemia, all grades [2]: 18 (44) n (%)
Arthralgia, Grades 3–5 [2]: 0 n (%)
Arthralgia, all grades [2]: 12 (29) n (%)
Constipation, Grades 3–5 [2]: 0 n (%)
Constipation, all grades [2]: 17 (42) n (%)
Cough, Grades 3–5 [2]: 0 n (%)
Cough, all grades [2]: 13 (32) n (%)
Decreased appetite, Grades 3–5 [2]: 0 n (%)
Decreased appetite, all grades [2]: 13 (32) n (%)
Diarrhea, Grades 3–5 [2]: 0 n (%)
Diarrhea, all grades [2]: 32 (78) n (%)
Dyspepsia, Grades 3–5 [2]: 0 n (%)
Dyspepsia, all grades [2]: 11 (27) n (%)
Fatigue, Grades 3–5 [2]: 3 (7) n (%)
Fatigue, all grades [2]: 28 (68) n (%)
Flatulence, Grades 3–5 [2]: 0 n (%)
Flatulence, all grades [2]: 11 (27) n (%)
Nausea, Grades 3–5 [2]: 1 (2) n (%)
Nausea, all grades [2]: 28 (68) n (%)
Vomiting, Grades 3–5 [2]: 1 (2) n (%)
Vomiting, all grades [2]: 16 (39) n (%)
AEs leading to dose interruption (phase Ia dose escalation): 18 (44%) n (%)
AEs leading to dose reduction (phase Ia dose escalation): 5 (12%) n (%)
patients with ≥ 1 AE considered related to GDC-0810 (phase Ia dose escalation): 40 (98%) n (%)
mean time to onset for any grade diarrhea (phase Ia dose-escalation cohorts): 29 days
SAEs considered related to the study drug (phase Ia, grade 4 pulmonary embolism): one of the 20
patients with grade ≥3 AEs related to GDC-0810 (phase Ia, grade 4 pulmonary embolism and two grade 3 diarrhea): 3 (7%) n (%)
deaths (phase Ib): no deaths
AST increased, Grades 3–5 [3]: 0 n (%)
AST increased, all grades [3]: 1 (25) n (%)
Abdominal pain, Grades 3–5 [3]: 0 n (%)
Abdominal pain, all grades [3]: 0 n (%)
Anemia, Grades 3–5 [3]: 0 n (%)
Anemia, all grades [3]: 2 (50) n (%)
Arthralgia, Grades 3–5 [3]: 0 n (%)
Arthralgia, all grades [3]: 1 (25) n (%)
Constipation, Grades 3–5 [3]: 0 n (%)
Constipation, all grades [3]: 0 n (%)
Cough, Grades 3–5 [3]: 0 n (%)
Cough, all grades [3]: 1 (25) n (%)
Decreased appetite, Grades 3–5 [3]: 0 n (%)
Decreased appetite, all grades [3]: 1 (25) n (%)
